# Results taken from US20130178523A1, “ANTI-CANCER COMPOSITIONS AND METHODS” (THE PENN STATE RESEARCH FOUNDATION, priority 2007, published 2013).
# Read-outs that look alike come from different tables or passages of the source.
# Legend:
# PC-3 = assay: MTS assay, prostate cancer cells; conditions: Homo sapiens, PC-3, 24 h
# UACC 903 cells [1] = assay: Apo-ONE caspase-3/7 apoptosis assay; format: cell-based, human; conditions: 24 hours
# Experimental: Apoptosis rates are measured using an Apo-ONE Homogenous caspase-3/7 Assay kit (Promega Corporation, Madison, Wis.).
# The isoselenocyanate compounds promote apoptosis in melanoma cells. […] The graphs in FIGS. 3A and 3B show fold increase in caspase-3/7 activity relative to DMSO vehicle treated cells on the x-axis. Results represent average of 3 independent experiments. Bars indicate SEM.
# UACC 903 cells [2] = assay: Cell cycle analysis (propidium iodide, FACScan); conditions: 24 hours
# [3] = test system: Akt signaling pathway in melanoma cell line 1205 Lu; assay: Western blot, Akt signaling pathway in 1205 Lu; conditions: FIG. 10A
# HT-1080 = assay: MTS assay, fibrosarcoma cells; conditions: Homo sapiens, HT-1080, 24 h
# UACC 903 melanoma cells [4] = assay: MTS cell viability assay, UACC 903; conditions: Homo sapiens, UACC-903, 24 h
# [5] = test system: pAkt and downstream pPRAS40 in UACC 903 tumors; assay: Western blot analysis of excised tumors; conditions: day 13, 0.76 μmoles i.p. alternate days, versus DMSO or PBITC
# 1205 Lu melanoma cells = assay: MTS cell viability assay, 1205 Lu; conditions: Homo sapiens, 24 h
# [6] = Toxicity assessments in nude mice (blood parameters, histology); format: in vivo
# From the text: Animals are sacrificed by CO2 asphyxiation and blood collected from each animal in plasma separator tubes with lithium heparin (BD Microtainer, BD, Franklin Lakes, N.J.) following cardiac puncture and analyzed for AST (aspartate aminotransferase), ALT, (alanyl aminotransferase), alkaline phosphatase, glucose and creatinine to ascertain liver, heart, kidney and pancreas related toxicity. For morphological examination of blood cells, whole blood is collected in microtainer tubes containing K2EDTA (BD Microtainer, BD, Franklin Lakes, N.J.) and RBC, WBC, lymphocytes, monocytes, eosinophils, platelets, total hemoglobin and hematocrit percentage analyzed. Blood is also microscopically examined for segregates, polychromatin bodies, and smudge cells. A portion of liver, heart, kidney, spleen, intestine pancreas and adrenal from each animal is formalin fixed and paraffin-embedded to examine toxicity-related changes in cell or organ morphology by H&E staining.
# UACC 903 melanoma cells [7] = assay: Tumor development in nude mice, subcutaneous UACC 903, i.p. treatment
# UACC 903 cells [8] = assay: Topical application on melanoma tumor growth in vivo; design: species or system mice; conditions: topical daily
# Experimental: Chemopreventive or chemotherapeutic effect of ISC-4 on cutaneous tumor development is measured by subcutaneous injection of 1 million UACC 903 cells in 0.2 ml of DMEM −10% FBS above both the left and right rib cages of 4- to 6-week old female athymic nude mice using 24 g needles. […] The dimensions of the developing tumors are measured alternate days using calipers and the sizes estimated in cubic millimeters. A minimum of 5 mice per group is used for the topical treatment.
# Chemopreventive or chemotherapeutic effect of ISC-4 on cutaneous tumor development is measured by subcutaneous injection of 1 million UACC 903 cells in 0.2 ml of DMEM −10% FBS above both the left and right rib cages of 4- to 6-week old female athymic nude mice using 24 g needles. 24 hours later, animals were treated daily with ISC-4 (12.5-50 μM), PBITC (12.5-50 μM), or vehicle control (acetone) for 3-4 weeks. The dimensions of the developing tumors are measured alternate days using calipers and the sizes estimated in cubic millimeters. A minimum of 5 mice per group was used for the topical treatment.
# [9] = test system: Akt signaling pathway in melanoma cell line WM115; assay: Western blot, Akt signaling pathway in WM115; conditions: FIG. 10B
# [10] = test system: GFP tagged UACC 903 human melanoma cells; assay: Topical application on reconstructed human skin with melanoma cells; conditions: 12.5 and 25 μM topical; compared to DMSO treated or untreated skins
# MDA-MB-231 = assay: MTS assay, breast cancer cells; conditions: Homo sapiens, MDA-MB-231, 24 h
# Akt signaling pathway = assay: Western blot of Akt signaling pathway in cultured melanoma cells (FIG. 9); conditions: 24 hours
# T-98-G = assay: MTS assay, glioblastoma cells; conditions: Homo sapiens, T98G, 24 h
# UACC 903 tumors = assay: Proliferation/apoptosis rates in tumors (TUNEL, Ki-67)
# UACC 903 cells [11] = assay: BrdU ELISA cellular proliferation; format: cell-based, human; conditions: 24 hours
# Experimental: Proliferation rate is measured using a BrdU ELISA kit (Roche Applied Sciences, Indianapolis, Ind.).
# BrdUrd is used to label cells for 4-6 hours. At 15 μM concentration, ISC-4 and ISC-6 reduced UACC 903 cellular proliferative potential by ˜80-90% compared to controls. Results represent the average of 3 independent experiments; bars represent SEM. The average value is represented as the percentage of control DMSO treated cells.
# Caco-2 = assay: MTS assay, colon cancer cells; conditions: Homo sapiens, Caco-2, 24 h
# [12] = test system: normal human fibroblasts (FF2441); assay: IC50 in normal human fibroblasts
# WM115 melanoma cells = assay: MTS cell viability assay, WM115; conditions: Homo sapiens, WM-115, 24 h
# MDA-MB 231 (breast) = assay: IC-50 in various cell lines (Table V), MDA-MB 231; format: cell-based; conditions: Homo sapiens
# PC-3 (Prostate) = assay: IC-50 in various cell lines (Table V), PC-3; format: cell-based
# CaCO2 (Colon Carcinoma) = assay: IC-50 in various cell lines (Table V), CaCO2; format: cell-based; conditions: Homo sapiens, Caco-2
# [13] = test system: FF2441 (fibroblast cells); assay: IC-50 in various cell lines (Table V), FF2441; format: cell-based; conditions: Homo sapiens
# [14] = test system: IGROV-1 (ovarian carcinoma); assay: IC-50 in various cell lines (Table V), IGROV-1; format: cell-based; conditions: Homo sapiens
# 1205LU (Melanoma) = assay: IC-50 in various cell lines (Table V), 1205LU; format: cell-based; conditions: Homo sapiens
# A549 (lung) = assay: IC-50 in various cell lines (Table V), A549; format: cell-based; conditions: Homo sapiens
# UACC-903 (Melanoma) = assay: IC-50 in various cell lines (Table V), UACC-903; format: cell-based; conditions: Homo sapiens
# [15] = test system: HT1080 (Soft Tissue Sarcoma); assay: IC-50 in various cell lines (Table V), HT1080; format: cell-based; conditions: Homo sapiens, HT-1080
# UACC 903M cells = assay: IC50 of NAC conjugate in UACC 903M cells; format: cell-based
smiles,measurement,setting,value
"[Se]=C=NCCCCc1ccccc1 [ISC-4, Phenylbutyl Isoselenocyanate]",IC50,PC-3,19 ± 1 µM
same,"cellular apoptosis with increasing concentrations (caspase-3/7 activity, words)","UACC 903 cells [1]; 5, 10, 15 μM",increase cellular apoptosis
same,fold more effective than PBITC at inducing apoptosis,"UACC 903 cells [1]; caspase-3/7 activity, 5-15 μM",~2 fold
same,G0/G1 cell population,UACC 903 cells [2]; 5 μM,59.4
same,G2/M cell population,UACC 903 cells [2]; 5 μM,16.3
same,S cell population,UACC 903 cells [2]; 5 μM,24.3
same,subG0/G1 cell population,UACC 903 cells [2]; 5 μM,2.9
same,G0/G1 cell population,UACC 903 cells [2]; 10 μM,41.6
same,G2/M cell population,UACC 903 cells [2]; 10 μM,29.4
same,S cell population,UACC 903 cells [2]; 10 μM,29.0
same,subG0/G1 cell population,UACC 903 cells [2]; 10 μM,12.3
same,G0/G1 cell population,UACC 903 cells [2]; 15 μM,35.5
same,G2/M cell population,UACC 903 cells [2]; 15 μM,28.0
same,S cell population,UACC 903 cells [2]; 15 μM,36.5
same,subG0/G1 cell population,UACC 903 cells [2]; 15 μM,22.8
same,apoptosis indicated by cleaved PARP protein levels,[3],causes significant apoptosis
same,IC50,HT-1080,11 ± 1 µM
same,IC50,UACC 903 melanoma cells [4],12 ± 3 µM
same,expression of downstream PRAS40 (phosphorylated) in tumor lysates,[5]; p<0.001,significantly decreased expression
same,expression of phosphorylated (active) Akt in tumor lysates,[5]; p<0.05,significantly decreased expression
same,IC50,1205 Lu melanoma cells,11 µM
same,"blood SGOT, SGPT, alkaline phosphatase, glucose and creatinine","[6]; 0.76 μmoles i.p. 3 times per week for 3 weeks, compared to vehicle DMSO",did not alter parameters
same,histological examination of vital organ sections,"[6]; hematoxylin and eosin stained, including the liver",did not significantly change cell morphology or organ structure
same,"basal urea nitrogen (BUN), creatinine and glucose levels",[6]; treated versus control animals,not significantly different
same,melanoma tumor volume,"UACC 903 melanoma cells [7]; 0.76 μmoles (3 ppm selenium) i.p. thrice per week, day 24, doses 3× lower than isothiocyanates",reduce tumor volume
same,systemic toxicity by body weight,UACC 903 cells [8]; 0.063-0.19 μmoles equivalent to 0.25-0.75 ppm,no systemic toxicity
same,tumor size,"UACC 903 cells [8]; 0.063-0.19 μmoles equivalent to 0.25-0.75 ppm, versus vehicle or PBITC",decreased tumor size
same,systemic toxicity by body weight,UACC 903 cells [8]; 12.5-50 μM,no systemic toxicity
same,reduction of melanoma tumor development,"UACC 903 cells [8]; 12.5-50 μM, compared to PBITC or vehicle control",~50%
same,apoptosis indicated by cleaved PARP protein levels,[9],causes significant apoptosis
same,decrease in tumor area occupied by melanoma cells,[10],~80%
same,IC50,MDA-MB-231,21 µM
same,concentration completely inhibiting the Akt3 pathway (Western blot),Akt signaling pathway,10 µM
same,level of apoptosis (cleaved PARP) versus PBITC,Akt signaling pathway,higher level of apoptosis
same,IC50,T-98-G,27 ± 1 µM
same,"proliferating tumor cells (Ki-67, words)","UACC 903 tumors; compared to PBITC, size and time matched tumors",slightly fewer proliferating tumor cells
same,"TUNEL positive (apoptotic) cells in tumors, fold versus DMSO or PBITC","UACC 903 tumors; tumors harvested at day 11 and 13, 3 ppm selenium i.p.",~3 fold
same,proliferative potential with increasing concentrations,"UACC 903 cells [11]; 5, 10, 15 μM",decreased proliferative potential
same,fold more effective than PBITC or PHITC at inhibiting cellular proliferation,UACC 903 cells [11]; 5-15 μM,~2 fold
same,IC50,Caco-2,12 ± 3 µM
same,fold greater sensitivity of melanoma cells (UACC 903) than normal fibroblasts (FF2441),[12]; 24 hours,3 fold
same,IC50,"[12]; Homo sapiens, FF2441, 24 h, read-out: IC50 (drug concentration required to kill fibroblasts)",37.5 µM
same,IC50,WM115 melanoma cells,7 µM
"C[S+]([O-])CCCCN=C=S (stereo not drawn) [SFN, sulforaphane, reference compound]",IC50,"MDA-MB 231 (breast); MDA-MB 231 (breast), read-out: IC-50",57 ± 5 µM
same,IC50,"PC-3 (Prostate); PC-3 (Prostate), read-out: IC-50",> 50 µM
same,IC50,"CaCO2 (Colon Carcinoma); CaCO2 (Colon Carcinoma), read-out: IC-50",48 ± 5.9 µM
same,IC50,"[13]; FF2441 (fibroblast cells), read-out: IC-50",> 50 µM
same,IC50,"[14]; IGROV-1 (ovarian carcinoma), read-out: IC-50",> 50 µM
same,IC50,"1205LU (Melanoma); 1205LU (Melanoma), read-out: IC-50",> 50 µM
same,IC50,"A549 (lung); A549 (lung), read-out: IC-50",73 ± 3.6 µM
same,IC50,"UACC-903 (Melanoma); UACC-903 (Melanoma), read-out: IC-50",40 ± 0.89 µM
same,IC50,"[15]; HT1080 (Soft Tissue Sarcoma), read-out: IC-50",> 50 µM
CC(=O)NC(CSC(=[Se])NCCCCc1ccccc1)C(=O)O (stereo not drawn) [compound 5],IC50,UACC 903M cells,17 ± 2 µM
"C[S+]([O-])CCCCN=C=[Se] (stereo not drawn) [SFN Iso Se, 1-isoselenocyanato-4-(methylsulfinyl)butane]",IC50,MDA-MB 231 (breast); MDA-MB-231,20 ± 0.46 µM
same,IC50,PC-3 (Prostate),24.8 ± 0.58 µM
same,IC50,CaCO2 (Colon Carcinoma),16 ± 0.4 µM
same,IC50,[13]; FF2441,> 50 µM
same,IC50,[14]; IGROV-1,> 50 µM
same,tumor development,"UACC 903 melanoma cells [7]; 0.76 micromoles (3 ppm selenium) i.p., compared to controls, FIG. 14A",inhibition of tumor development
same,IC50,1205LU (Melanoma); 1205Lu,39.2 ± 2 µM
same,IC50,A549 (lung); A549,35 ± 1.7 µM
same,IC50,UACC-903 (Melanoma); UACC-903,17 ± 0.95 µM
same,IC50,[15],25.6 ± 1.82 µM
